The source made the active and inactive calls. How the calls were made is not given here.

In the assay the test system is B cell line, CD40 signaling inhibition reporter. Nature of the assay: CD40 pathway inhibition in B cells – B cell lineage, dose response (AID 1259332).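 Further: cells stimulated with CD40 ligand tCD40L.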

Consider `O=C(/C=C/c1ccccc1)CC(O)(c1ccccc1)C(F)(F)C(F)F` (stereo not given), for which the half-maximal activity concentration (AC50) (as a rule, the concentration at which the activity in the assay is half-maximal) was 6.39 µM.
As for `NC(=O)c1c(Br)n(C2OC(CO)C(O)C2O)c2ncnc(N)c12` (stereo not given), the concentration at half-maximal activity (AC50) is 3.84 µM.
The value for `COCCn1c(C)cc(C(=O)COC(=O)c2ccc(Cl)c(S(N)(=O)=O)c2)c1C` was > 20 µM (inactive); that for `COc1ccc(/C=C\c2nc(=O)c3ccccc3o2)cc1` was 7.67 µM; that for `C[C@@H]1CN([C@@H](C)CO)C(=O)Cc2cc(NS(=O)(=O)c3ccc(F)cc3)ccc2O[C@H]1CN(C)Cc1ccc(C(F)(F)F)cc1` was 3.75 µM.
The result for `O=C1NC2c3c(Cl)sc(Cl)c3C(=O)C2O1` (stereo not given) reads 7.36 µM.
The value for `Clc1ccc(COC(Cn2ccnc2)c2ccc(Cl)cc2Cl)c(Cl)c1` (stereo not given) was 5.18 µM; that for `COc1cccc(/C=N/Nc2ccc(C(=O)O)cc2)c1O` was 1.33 µM; that for `C[C@H]1CN([C@@H](C)CO)C(=O)Cc2cc(NC(=O)Cc3cn(C)c4ccccc34)ccc2O[C@H]1CN(C)Cc1ccc(C(F)(F)F)cc1` was > 20 µM (inactive).
`CC(C)[C@H](N)C(=O)N[C@H]1CCC2C3CC=C4C[C@@H](O)CC[C@]4(C)C3CC[C@@]21C` (stereo not given in full): the AC50 was 2.97 µM.
Take `Cn1cnc(CCNC(=O)C[C@@H]2CC[C@@H]3[C@H](COC[C@@H](O)CN3C(=O)Nc3ccc(C(F)(F)F)cc3)O2)c1`: the AC50 was 8.76 µM.
The value for `C[C@@H]1CCCCO[C@@H](CN(C)Cc2ccc(Cl)c(Cl)c2)[C@H](C)CN([C@H](C)CO)C(=O)c2cc(NS(=O)(=O)c3cccs3)ccc2O1` was 7.26 µM; that for `O=C(C1CC1)N1C[C@@H]2N[C@H](C1)C2c1ccc(-c2cccc(F)c2)cc1` (stereo not given in full) was 6.91 µM.
The result for `COC(=O)c1nn(-c2ccc(-c3ccccc3)cc2)cc1O` reads 8.42 µM; that for `C[C@H](CO)N1C[C@H](C)[C@H](CN(C)S(=O)(=O)c2ccc(Cl)cc2)Oc2c(NC(=O)Nc3ccc(F)cc3)cccc2C1=O`, 6.47 µM; that for `O=C(Nc1cccc(N2C(=O)C=CC2=O)c1)c1cccs1`, 1.68 µM.
The value for `COc1cc2cc(C(=O)N3CC(COS(C)(=O)=O)c4ccc(O)cc43)[nH]c2c(OC)c1OC` (stereo not given) was 0.00741 µM.
For the molecule `CC[C@H]1CN2CCc3cc(OC)c(OC)cc3C2C[C@@H]1CC1NCCc2cc(OC)c(OC)cc21` (stereo not given in full), the half-maximal activity concentration (AC50) was 0.0205 µM.
The result for `N#C[C@H]1[C@H](c2ccc(C#Cc3ccc(F)cc3)cc2)[C@@H](CO)N1C(=O)C1CCC1` reads 7.7 µM.
The result for `Cc1[nH]c2ccccc2c1C(c1ccccn1)N1CCC(C(N)=O)CC1` (stereo not given) reads 9.34 µM.
Take `CCOC(=O)c1c(SCCN2CCCC2)n(-c2ccccc2)c(=S)n(-c2ccccc2)c1=O`: the AC50 was > 20 µM (inactive).
Take `C[C@H]1O[C@@H](O[C@H]2[C@@H](O)C[C@H](O[C@H]3[C@@H](O)C[C@H](O[C@H]4CC[C@]5(C)C6C[C@@H](O)[C@]7(C)[C@@H](C8=CC(=O)OC8)CC[C@]7(O)C6CC[C@@H]5C4)O[C@@H]3C)O[C@@H]2C)C[C@H](O)[C@@H]1O` (stereo not given in full): the AC50 was 2.59 µM.
Regarding `CCN(CC)C(=O)c1ccc(NC(=O)Nc2ccccc2F)cc1`, the AC50 was 2.35 µM.
The value for `C[C@@H]1CN([C@H](C)CO)C(=O)c2cc(NS(=O)(=O)c3cccs3)ccc2O[C@@H](C)CCCCO[C@H]1CN(C)Cc1ccc(Cl)c(Cl)c1` was > 20 µM (inactive); that for `CC(=NNC(=S)N1CC2CCC(CC2)C1)c1nccs1` was > 7 µM (inactive); that for `O=C(COC(=O)c1ccccc1)c1ccc2c(c1)OCCO2` was 0.926 µM.
With `O=S(=O)(CCSc1ccccn1)c1nc2ccccc2s1`, the concentration at half-maximal activity (AC50) was 8.22 µM.
The value for `CCCNC(=O)N1[C@H](C#N)[C@H](c2ccc(C#Cc3cccc(F)c3)cc2)[C@H]1CO` was 5.57 µM; that for `CCOc1ccc(OCc2cccc(C(=O)N3CCOCC3)c2)cc1` was 2.92 µM; that for `CC1CNCCN1S(=O)(=O)c1cccc2cnccc12` (stereo not given) was 9.01 µM.
As to `Clc1ccc(C(Cn2ccnc2)OCc2ccsc2Cl)c(Cl)c1` (stereo not given), the AC50 is 6.04 µM.
Regarding `COCC(C)n1c(C)cc(C(=O)COC(=O)c2cccn2C)c1C` (stereo not given), the concentration at half-maximal activity (AC50) was 3.06 µM.
The value for `Oc1c(Cl)cc(Cl)c(Cl)c1Cc1c(O)c(Cl)cc(Cl)c1Cl` was 3.6 µM.
The value for `O=C(Nc1ccc2c(c1)OCCO2)C1CCCC1` was 5.46 µM.
The result for `COc1c(O)cc2oc3cc(O)c(CC=C(C)C)c(O)c3c(=O)c2c1CC=C(C)C` reads 3.6 µM; that for `CC(=O)Nc1ccc(Sc2ccc([N+](=O)[O-])o2)cc1`, 1.99 µM.
For `O=C(C#Cc1ccccc1)c1ccccc1`, the AC50 is 6.37 µM.
The value for `COc1ccc2cc(-c3cc(C(=O)O)c4ccccc4n3)ccc2c1` was 6.11 µM; that for `Cc1ccc(OCCn2cnc3c(N)ncnc32)cc1` was 0.649 µM.
The result for `COc1ccc(-c2cc(-c3ccccc3)c(C#N)c(S(C)=O)n2)cc1` (stereo not given) reads 2.55 µM; that for `C=C1C(=O)O[C@H]2[C@H]1CC/C(C)=C/CC[C@@]1(C)O[C@@H]21`, 4.54 µM; that for `O=C(COc1cccnc1[N+](=O)[O-])c1ccc(Cl)s1`, 3.2 µM.
The result for `N#C[C@@H]1[C@H](c2ccc(C#Cc3ccc(F)cc3)cc2)[C@@H](CO)N1C(=O)C1CCC1` reads 4.71 µM; that for `OC(c1cc(-c2cccc(Cl)c2)nc2ccccc12)C1CCCCN1` (stereo not given), 4.14 µM; that for `Clc1ccc(CSC(Cn2ccnc2)c2ccc(Cl)cc2Cl)cc1` (stereo not given), > 20 µM (inactive).
As for `CS(=O)(=O)c1ccc(C(=O)OCC(=O)NC(=O)C2COc3ccccc3O2)cc1[N+](=O)[O-]` (stereo not given), the half-maximal activity concentration (AC50) is 10.2 µM.
The value for `C[C@@H]1CN([C@@H](C)CO)C(=O)c2ccccc2-c2ccccc2CO[C@@H]1CN(C)Cc1ccc(Oc2ccccc2)cc1` was > 20 µM (inactive).
The value for `CC(C)(C)c1cc(C=C(C#N)C#N)cc(C(C)(C)C)c1O` was 0.524 µM.
With `CC(=O)OC(C)(C)/C=C/C(=O)C(C)(O)C1C(O)CC2(C)C3CC=C4C(CC(O)C(=O)C4(C)C)C3(C)C(=O)CC12C` (stereo not given), the AC50 is 0.124 µM.
The result for `C[C@@H]1CN([C@@H](C)CO)C(=O)c2c(c3ccccc3n2C)-c2ccccc2CO[C@H]1CN(C)Cc1cccc(C(F)(F)F)c1` reads 10.7 µM.
In the case of `C[C@@H]1CN([C@@H](C)CO)C(=O)c2cc(C#CCc3ccccc3)cnc2O[C@@H]1CN(C)C(=O)C1CCOCC1`, the AC50 is 7.23 µM.
The result for `CCN1/C(=C/c2sc(-c3ccccc3C)c[n+]2C)Sc2ccccc21` reads 1.91 µM; that for `CC(=O)NCCCC(=O)NC(CCC(=O)OCc1ccccc1)C(=O)OCc1ccccc1` (stereo not given), > 20 µM (inactive).
The value for `N#C[C@@H]1[C@H](c2ccc(C#CC3CCCC3)cc2)[C@H](CO)N1C(=O)Cc1ccccn1` was 9.08 µM; that for `CC(=NNc1ccc2ccccc2n1)c1ccccc1O` was 2.94 µM; that for `CC[C@@]1(O)C(=O)OCc2c1cc1n(c2=O)Cc2cc3cc(O)ccc3nc2-1` was 1.33 µM.
The value for `COc1ccc(C=Cc2ccc3ccccc3n2)c(OC)c1` was 11.3 µM.
On to `C[C@@H]1CN([C@H](C)CO)C(=O)c2ccccc2-c2ccccc2CO[C@@H]1CN(C)C(=O)c1cc(Cl)cc(Cl)c1`, for which the half-maximal activity concentration (AC50) was 7.99 µM.
The value for `CC1OC(OC2CC(O)C3(CO)C4C(O)CC5(C)C(C6=CC(=O)OC6)CCC5(O)C4CCC3(O)C2)C(O)C(O)C1O` (stereo not given) was 0.405 µM; that for `O=S(c1ccccc1O)S(=O)c1ccccc1O` (stereo not given) was 4.55 µM.

The record behind these values is PubChem BioAssay AID1259332 (Broad Institute, 2017).
